# Measured values taken from patent publication CN114306299A, “贝利司他在制备缓解和/或治疗缺血性脑卒中药物中的应用” (Institute of Materia Medica of CAMS and PUMC, priority 2020, dated 2022).
# Columns and labels:
# MCAO/R rats (MCAO/R大鼠) [1] = experiment: TTC staining of cerebral infarct volume in MCAO/R rats, 24 h after reperfusion (1.2); format: in vivo, rat; conditions: i.p. at reperfusion; for cerebral infarct volume vs. model group: **P<0.01 vs. model group, n=7~11
# [2] = treated subjects in clinical studies; cited from earlier work
# MCAO/R rats (MCAO/R大鼠) [3] = experiment: Survival rate of MCAO/R rats, 14-day dosing (2.2); format: in vivo, rat; conditions: treated groups (10, 30, 50 mg/kg); dosing from 24 h after reperfusion, once daily for 14 days; n=9~18; compared with model group (low survival)
# MCAO/R rats (MCAO/R大鼠) [4] = experiment: Foot-fault test in MCAO/R rats, days 1, 3, 7, 14 (2.4); conditions: from day 7; treated groups (10, 30, 50 mg/kg), once daily for 14 days from 24 h after reperfusion; *P<0.05, **P<0.01 vs. model group; n=6~9
# MCAO/R rats (MCAO/R大鼠) [5] = experiment: Recovery of neurological function (mNSS) in MCAO/R rats, days 1, 3, 7, 14 (2.3)
# tumor cells (肿瘤细胞) = conditions: cited from earlier work
# [6] = tested on: certain transformed cells (某些转化细胞); conditions: in vitro, nanomolar concentration (<250nM); cited from earlier work
# MCAO/R rats (MCAO/R大鼠) [7] = experiment: Neurological function score (mNSS) in MCAO/R rats 24 h after reperfusion (1.3); format: in vivo, rat; conditions: i.p. at reperfusion; for mNSS score vs. model group: **P<0.01 vs. model group, n=7~11
# [8] = tested on: histone deacetylase, HDAC (组蛋白去乙酰化酶, HDAC); conditions: in vitro; cited from earlier work
compound,measurement,setting,value
O=C(/C=C/c1cccc(S(=O)(=O)Nc2ccccc2)c1)NO [贝利司他],infarct volume vs. model group,MCAO/R rats (MCAO/R大鼠) [1]; dose group not named,能够减少MCAO/R大鼠的梗死体积
same,cerebral infarct volume vs. model group,MCAO/R rats (MCAO/R大鼠) [1]; high dose 50 mg/kg,显著降低
same,cerebral infarct volume vs. model group,MCAO/R rats (MCAO/R大鼠) [1]; medium dose 30 mg/kg,显著降低
same,most common side effects,[2],恶心、呕吐、乏力、发热和贫血
same,survival rate,MCAO/R rats (MCAO/R大鼠) [3],明显增高
same,foot-fault rate vs. model group,MCAO/R rats (MCAO/R大鼠) [4],明显降低
same,mNSS score vs. model group,"MCAO/R rats (MCAO/R大鼠) [5]; from day 3, treated groups (10, 30, 50 mg/kg), once daily for 14 days from 24 h after reperfusion, *P<0.05, **P<0.01 vs. model group, n=6~9",显著低于模型组
same,neurological motor function,"MCAO/R rats (MCAO/R大鼠) [5]; treated groups, with increasing time of administration (once daily for 14 days)",神经运动功能恢复
same,cytotoxicity to tumor cells compared with normal cells,tumor cells (肿瘤细胞),强于正常细胞
same,accumulation of acetylated histones and other proteins,[6],可致乙酰化组蛋白及其他蛋白积聚
same,cell cycle arrest or apoptosis of certain transformed cells,[6],诱导细胞周期停滞或某些转化细胞凋亡
same,neurological motor function score vs. model group,MCAO/R rats (MCAO/R大鼠) [7]; dose group not named,显著降低
same,mNSS score vs. model group,MCAO/R rats (MCAO/R大鼠) [7]; high dose 50 mg/kg,显著低于模型组
same,mNSS score vs. model group,MCAO/R rats (MCAO/R大鼠) [7]; medium dose 30 mg/kg,显著低于模型组
same,concentration at which HDAC activity is inhibited,[8],< 250 nM
